# Key:
# NMRI-Mäusen = assay: CNS tolerability in the healthy animal (mouse), behavioural observation; assay type: in vivo, Maus; details: for Symptome: phenomena observed 3 hours after application; for Dosis, ab der eine ZNS erregende Aktivität, die als unverträglich gilt, auftritt: mouse, i.p., dose from which the behaviour-altering CNS excitation is seen
# Protocol: Adulten männlichen NMRI-Mäusen werden die zu untersuchenden Substanzen in Dosen von 0,1-100 mg/kg i.p. in einem Volumen von 10 ml/kg verabreicht. Pro Versuchsdosis werden drei Tiere eingesetzt, wobei eine Gruppe als Placebo nur mit dem Lösungsmittel behandelt (Kontrolle) mitgeführt wird.
# Die Placebogruppe dient dabei zur zeitgleichen Verhaltensfeststellung, parallel zur Versuchsgruppe. Sofort nach der Applikation werden die Tiere in Dreiergruppen in Beobachtungskäfige gesetzt und drei Stunden lang am ersten Tag beobachtet. Anschließend werden die Tiere gefüttert, getränkt und weitere sechs Tage, jeweils nach 24 Stunden, für eine halbe Stunde beobachtet. Dabei ergaben sich folgende Befunde: Tabelle 2
# Mongolischen Gerbil = assay: Neuroprotection after forebrain ischaemia in the gerbil (5-minute bilateral carotid artery occlusion); assay type: in vivo; details: treated vs. control group; for Verhaltensscore (% Änderung): 5-step neurological score over 45 min after ischaemia; for Zellnekrosen (% Änderung): 5-step histopathological score, hippocampal CA₁ region, 7 days later
# Description: Anhand der nachfolgend beschriebenen Versuchsdurchführungen (K. Rudolphi et. al, J. Cereb. Blood Flow Metab., 7:74. 1987) ergibt sich, daß die unten aufgeführten Verbindungen in der Lage sind, zerebrale Nervenzellen gegen eine schwere ischämische Schädigung zu schützen.
# Bei 20 männlichen Mongolischen Gerbils werden unter Halothan-Narkose durch beidseitigen Verschluß der A. Carotis mittels Aneurysmaclips eine 5-minütige Ischämie des Vorderhirns mit anschließender Rezirkulation erzeugt. Die Tiere werden 45 Minuten lang nach der Ischämie beobachtet und das Ausmaß der neurologischen Symptome mittels eines 5-stufigen Verhaltensscores bestimmt. 7 Tage später werden die Tiere unter Halothan-Narkose dekapitiert, die Gehirne in Carnoy-Lösung immersionsfixiert und das Ausmaß des Neuronenschadens in der CA₁-Region des Hippocampus mit Hilfe eines 5-stufigen histopathologischen Scores "blind" bestimmt. Die Prüfsubstanzen werden je einer Gruppe von 10 Gerbils intraperitoneal oder per os 15 Minuten vor der Ischämie verabreicht. Pro Testsubstanz wird eine ischämische Kontrollgruppe von ebenfalls 10 Tieren mit dem jeweiligen Lösungsmittel behandelt. Die Ergebnisse sind in Tabelle 6 als % Änderung des mittleren neurologsichen Verhaltensscores bzw. histopathologischen Scores (Summe der individuellen Scores/Anzahl der Tiere) der behandelten vs. Kontrollgruppe zusammengefaßt. Tabelle 1
# Je höher der Verhaltensscore (-% Änderungen), desto besser ist die Erholung der Tiere nach Ischämie.
# [1] = 30 mg/kg ip. 15 min before 5-min forebrain ischaemia
# [2] = 30 mg/kg ip. 15 min before ischaemia
SMILES,"Symptome (NMRI-Mäusen; dose 0,1-3 mg/kg i.p.)","Symptome (NMRI-Mäusen; dose 1,0-3,0 mg/kg i.p.)",Symptome (NMRI-Mäusen; dose 10-100 mg/kg i.p.),"Dosis, ab der eine ZNS erregende Aktivität, die als unverträglich gilt, auftritt (NMRI-Mäusen) [mg/kg i. p.]",Verhaltensscore (% Änderung) (Mongolischen Gerbil; [1]),Zellnekrosen (% Änderung) (Mongolischen Gerbil; [2]),"Symptome (NMRI-Mäusen; dose 0,1-0,3 mg/kg i.p.)","Dosis, ab der eine ZNS erregende Aktivität, die als unverträglich gilt, auftritt (NMRI-Mäusen; listed as (+)-Form) [mg/kg i. p.]","Symptome (NMRI-Mäusen; dose 0,01-0,3 mg/kg i.p.)","Dosis, ab der eine ZNS erregende Aktivität, die als unverträglich gilt, auftritt (NMRI-Mäusen; listed as (-)-Form) [mg/kg i. p.]",Verhaltensscore (% Änderung) (Mongolischen Gerbil; 60 mg/kg ip. 15 min before 5-min forebrain ischaemia),Zellnekrosen (% Änderung) (Mongolischen Gerbil; 60 mg/kg ip. 15 min before ischaemia)
"CNC(Cc1ccccc1N)c1sccc1C (racemic) [Razemisch II, 2-Amino-N-methyl-α-(3-methyl-2-thienyl)benzylethanamin]",vermehrter Putztrieb,"Unruhe, Erregung, vermehrter Putztrieb","Taumeln, vermehrter Putztrieb, Unruhe, Erregung",≥ 10,-15,-75,,,,,,
"CNC(Cc1ccccc1N)c1sccc1C (single isomer, unassigned; (+)) [(+)II, 2-Amino-N-methyl-α-(3-methyl-2-thienyl)benzylethanamin]",,kurzandauernde Erregung,"vermehrter Putztrieb, Unruhe, Erregung, Taumeln",,-51,-90,o. B.,≥ 10,,,,
"CNC(Cc1ccccc1N)c1sccc1C (single isomer, unassigned; (-)) [(-)II, 2-Amino-N-methyl-α-(3-methyl-2-thienyl)benzylethanamin]",,o. B.,"Unruhe, vermehrter Putztrieb",,-32,,,,o. B.,≥ 100,-75,-23
